# Test results: a melting point compilation (Tetko et al.; mined from patent text by program, amines drawn as free bases though some values may be those of a salt)
row,melting point,Compound
1,205 to 206 °C,CC1(C)Oc2ccc(C#N)cc2[C@@H](N2CCN(c3ccccc3)C2=O)[C@@H]1O (relative stereo)
2,149 to 151 °C,CC/C(=N\OCCCOc1ccc(C(=O)O)c(NC(=O)c2ccc(C(F)(F)F)cc2)c1)c1ccc(C(C)(C)C)cc1
3,188 °C,COc1cc(Cl)c(/C(=N\O)c2ccccc2F)cc1Cl
4,95 to 105 °C,COS(=O)(=O)Oc1ccc(-c2cccc(-c3nc(C(C)C)[nH]c3-c3cccc(C)n3)c2)cc1
5,124 to 125 °C,CCOc1ccc(-n2c(Cl)ccc2-c2ccc(S(N)(=O)=O)cc2)cc1
6,85 to 89 °C,COC(=O)CCC(=O)c1ccc(O)c(Cl)c1
7,85 °C,O=S(=O)(c1ccc(C(F)(F)F)cc1)N1CCCC1c1ccc(F)cc1 (racemic)
8,79 to 82 °C,CCOC(=S)c1cc(Cl)c(C)c(-c2cc(C)no2)c1C
9,152 to 154 °C,Cn1nc(-c2cc(C(C)(C)C)c(O)c(C(C)(C)C)c2)c2cccnc21
10,102 to 104 °C,Cc1cn(C(C)C(=O)N(C)C)nc1-c1ccccc1Br (stereo unspecified)
11,245 to 247 °C,"c1ccc2c(c1)CC1(C3=NCCN3)CC21 (single isomer, unassigned; (+))"
12,70 to 90 °C,COC(=O)CC1CCN(CCC=C2c3ccccc3OCOc3ccccc32)C1 (stereo unspecified)
13,104 °C,CC(=O)N(C)C1(c2ccccc2)CCN(Cc2ccccc2)CC1
14,219 to 221 °C,O=S(=O)(c1ccc(Cl)cc1)C(c1cc(F)ccc1F)c1cc(N2CCCS2(=O)=O)ncc1Cl (stereo unspecified)
15,166 to 168 °C,O=c1ccn(C2=CCN(Cc3ccc(Br)cc3)C=C2)cc1
16,75.2 to 76.5 °C,CCCCCCCCCCCCCCCCC(O)CN (stereo unspecified)
17,162 to 163 °C,CS(=O)(=O)Cc1cc(C(=O)C=NCCCCCCN=CC(=O)c2ccc(OCc3ccccc3)c(CS(C)(=O)=O)c2)ccc1OCc1ccccc1
18,196 to 198 °C,O=C(CCc1ccc(NC2=NCCN2)cc1)c1ccc(N2CCOCC2)cc1
19,168 to 170 °C,O=C(CCc1ccccc1)Nc1cc(-c2ccccc2)[nH]n1
20,139 to 140 °C,COc1ccc(-c2nc(C(C)=O)oc2-c2ccc(OC)cc2)cc1

row,melting point,Compound
1,214 to 216 °C,COC1(OC)CN(c2c(F)cc3c(=O)c(C(=O)O)cn(C4CC4)c3c2F)CC1C (stereo unspecified)
2,123 °C,O=S(=O)(c1cc(Cl)cc(Cl)c1)c1nnc(C(F)(F)F)s1
3,177 °C,COCCC(=O)N[C@H]1CC[C@H](CCN2CCC(c3ccc(F)c4occc34)CC2)CC1
4,114 °C,CCOC(=O)c1ccc(OCCC2CCN(c3ccc(C)nn3)CC2)s1
5,134 to 135 °C,C[C@H](C#Cc1ccc(Cc2ccc3ccccc3c2)s1)N(O)C(N)=O
6,200 °C,N=C(NO)c1cccc2nc(N[C@@H]3CCc4ccccc43)ccc12
7,53 to 54 °C,COc1cc(C=O)cc(I)c1OCc1ccccc1
8,80 to 82 °C,CCCCOc1cc(CCC(=O)O)ccc1-c1cccc(CN(C)C(=O)c2cccc(OC)c2)c1
9,149 °C,CNC(=O)CN(c1ccc(Cl)cc1N(C)c1ccccc1)S(=O)(=O)c1ccc(OC)c(OC)c1
10,160 to 161 °C,CCN(CC)CC1CCCCN1CCCNC(=O)N1c2ccccc2C(=O)Nc2cccnc21 (stereo unspecified)
11,230 to 231 °C,COc1cc2c(cc1-c1ncco1)-c1c(-c3cccs3)c3c(n1CC2)C(=O)N(C(C)(C)C)CCC3
12,115 to 121 °C,O=c1oc(-c2cccc(C(F)(F)F)c2)nc2cccc(F)c12
13,238 to 240 °C,Cc1cc(C(F)(F)F)c(-c2ccc(C[C@H](NC(=O)c3c(Cl)cccc3Cl)C(=O)O)cc2)c(=O)n1C
14,110 to 115 °C,CC(C)(c1ccc(C(C)(C)c2ccc(O)cc2O)cc1)c1ccc(O)cc1O
15,137 to 139 °C,FC(F)(F)c1cccc(-c2cc(Cl)n3nccc3n2)c1
16,182 °C,CCOC(=O)C(=NOC(C)C)c1csc(NC(c2ccccc2)(c2ccccc2)c2ccccc2)n1
17,63 to 65 °C,Cc1nc2cc(OCCCCl)ccc2s1
18,232 °C,COc1ccc2cccc(N3C(=O)CNCC3=O)c2c1
19,132 to 136 °C,Cc1ccc(Cl)c(C(=O)c2ccc(Cl)cc2)c1Cl
20,65 to 68 °C,CC(C)CCOC(=O)COc1cc(F)ccc1C(=O)NCc1cccc([N+](=O)[O-])c1

# Continued, compound first:
row,Compound,melting point
1,Cc1c(Oc2c(F)cc(C(F)(F)F)cc2Cl)nn(C(=O)OC(C)(C)C)c1C,138 to 139 °C
2,CN1C(=O)CC[C@]2(C)c3ccc(-c4ccc([N+](=O)[O-])cc4C(F)(F)F)cc3CC[C@@H]12,128 to 130 °C
3,CCN(CC)CCOC(=O)c1ccc(NC(=O)c2ccc(-c3ccccc3)cc2)cc1,146 to 149 °C
4,CCOC(=O)CCOc1cccc2c1CCCC2=O,57 to 59 °C
5,O=C1CCN(Cc2ncccc2O)CC1C(c1ccccc1)c1ccccc1 (stereo unspecified),121 to 122 °C
6,CCCc1c(OCCCS(=O)c2nc3ccc(C(=O)O)cc3[nH]2)ccc(C(C)=O)c1O (stereo unspecified),173 to 175 °C
7,CN(C)c1cccc2c1C(=O)NS2(=O)=O,228 to 229 °C
8,N#Cc1ccn(-c2ccc([N+](=O)[O-])cc2F)c1,117 to 119 °C
9,O=C(CCc1ccccc1)NCCCn1ccnc1,90 to 92 °C
10,N#Cc1cc(F)ccc1N1CCN(Cc2cn3cc(Cl)ccc3n2)CC1,179 to 180 °C
11,CCOC(=O)c1cc2cc(OC(C)=O)ccc2n1C,87 to 89 °C
12,COc1cc(-c2cnc3[nH]cc(C(=O)NC4CCCOC4)c3n2)cc(OC)c1OC (stereo unspecified),191 to 192 °C
13,N#Cc1cnc(Nc2ccc(F)cc2)nc1-c1ccc(N)nc1,289 °C
14,NC(=O)/C=C/C1=CC=CC(F)(C(F)(F)F)C1 (stereo unspecified),121 to 122 °C
15,CNC(=S)n1nc(-c2ccc(Cl)c3ccccc23)nc1N,270 to 272 °C
16,CN(C)CCCCCCCCCCOc1ccc(C(=O)c2ccccc2)cc1,33 to 35 °C

row,Compound,melting point
1,COc1ccc(N=Nc2cc(OC)cc(C(C)(C)C)c2O)cc1,125 to 127 °C
2,O=C1CCC(c2ccc(-c3cccnc3)cc2)=NN1,225 to 226 °C
3,Cc1cc(CO)cc(Cl)n1,112 to 113 °C
4,O=C1N(Cc2cnccn2)c2ccccc2C12COc1cc3c(cc12)OCCO3 (stereo unspecified),216 to 218 °C
5,CNC(=O)Nc1ccc(CN2OCC(C)(C)C2=O)c(Cl)c1,227 to 229 °C
6,COC(=O)COc1ccccc1Oc1cc(NC(=O)CC(O)(O)C(F)(F)F)c(F)cc1Cl,165 °C
7,O=C(O)c1ncn2c1[C@@H]1CCN1C(=O)c1ccccc1-2,232 °C
8,CCc1nc2c(O)c(CCC(O)c3ccccc3)c(C(=O)N(C)C)cc2n1C (stereo unspecified),121 to 124 °C
9,Cn1c(Cn2nc(CC(=O)O)c3ccccc3c2=O)nc2ccccc21,230 °C
10,CC1CC2C(=CCC3(C)C(C(=O)CCl)=CCC23)C2(C)C=CC(=O)C=C12 (stereo unspecified),164 °C
11,Oc1ccc2oc(-c3ccc(O)c4ccccc34)nc2c1,182 to 184 °C
12,Cc1nc2c(N)nc3ccccc3c2n1CCCCCCS(C)(=O)=O,202 to 206 °C
13,COc1cc(C=Cc2c(CO)ccc(OC)c2OC)cc(OC)c1OC,120 to 121 °C
14,N#Cc1c(-c2ccccc2)c(-c2ccccc2)nn(CCCO)c1=O,156 to 157 °C
15,CCOC(=O)C(=O)N(CCN=[N+]=[N-])N=Cc1ccccc1,59 to 61 °C
